US7604947B2, “Detection and modulation of cancer stem cells” (Cornell Research Foundation, Inc., priority 2004, dated 2009)
“Also recorded” adds a separate entry of the source.

Legend:
hRex1 = assay: RT-PCR of hRex1 expression after retinoic acid treatment; format: cell-based, human; conditions: MDA-MB-468 cells
human REX-1 protein [1] = assay: Western blot of human REX-1 protein after retinoic acid treatment, HEKa cells; format: cell-based; conditions: RA 1 μM for 48 hours
Excerpt: (§1) The following human carcinoma and leukemia cell lines were maintained as directed by the ATCC: breast cancer cells: MCF-7, MDA-MB-231, MDA-MB-453, MDA-MB-468, SK-BR3 and HS578T; prostate cancer cells: LnCAP; skin cancer cells: SCC-12, SCC-13; kidney cancer cells: SK-39; bladder cancer cells: HTB1, HT1376, HTB9; oral cavity (head and neck) cancer: SCC-4, SCC-9, SCC-25, SCC-15; leukemia cells: HL-60, NB4 and NTERA2 teratocarcinoma cells. Normal human mammary (HMEC); renal proximal tubule epithelial cells (RPTE); prostate epithelial cells (PrEC), keratinocytes (NHEK) and lung (NHBE, SAEC) epithelial cells were grown as directed by the supplier (Cambrex, Walkersville, Md.). Normal human keratinocytes were also purchased from Cascade Biologics (Portland, Oreg.) and cultured as directed. Non-tumorous bladder cancer samples were provided by Dr. Stephen Boorjian (Weill Medical College, Cornell University, NY, N.Y.) and are as described in Boorjian, S, Tickoo, S K, Mongan, N P et al. Reduced Lecithin:Retinol Acyltransferase (LRAT) Expression Correlates with Increased Pathologic Tumor Stage in Bladder Cancer. Clinical Cancer Research 2004; 10:In press. Normal and All-trans-retinoic acid (RA) (Sigma, St. Louis, Mo.) was dissolved in ethanol and used at a final concentration of 20 nM or 1 μM as indicated in the descriptions of the figures. […]

human REX-1 protein [2] = assay: Western blot of human REX-1 protein after retinoic acid treatment, MDA-MB-468 cells; format: cell-based; conditions: RA 1 μM for 48 hours
Excerpt: as §1

[3] = tested on: polyclonal rabbit anti-human REX-1 antibody; assay: Immunohistochemistry peptide competition of anti-REX-1 antibody staining in normal renal parenchyma; format: binding; conditions: 1 μg/mL free peptide, normal renal parenchyma sections
Protocol: Paraffin-embedded sections. Five micron tissue sections were cut from the patient blocks, and the sections were deparaffinized in Histoclear™(National Diagnostics, Atlanta, Ga.) followed by rehydration in a graded series of ethanol. Antigen retrieval was performed by heat with the Antigen Unmasking Solution (Vector Laboratories, Burlingame, Calif.) in a pressure cooker for 8 minutes. A 3% solution of H2O2 was used to quench the endogenous peroxidase activity (15 minute incubation). […] This was followed by incubation with the affinity-purified, polyclonal rabbit antihuman REX-1 primary antibody diluted 1:5 in 1.5% goat serum for 45-60 min. at room temperature, and then with 100 μL of horseradish peroxidase (HRP) conjugated goat anti-rabbit secondary antibody (SuperPicture, Zymed, San Francisco, Calif.) for 30 minutes at room temperature. Color was developed with the 3,3′-diaminobenzidine chromogen substrate, followed by counterstaining with hematoxylin (Vector). The negative control normal and tumor sections were treated identically to all other sections, with the exception that 1.5% normal goat serum was used in place of the primary antibody. […] All samples were analyzed using this identical protocol with the same reagents. The staining procedures were repeated at least three times with similar results.

Compound	expression of hRex1 following RA treatment (hRex1)	expression of hRex1 following RA treatment (hRex1; listed as retinoic acid)	level of human REX-1 protein following RA treatment (human REX-1 protein [1])	level of human REX-1 protein following RA treatment (human REX-1 protein [2])	REX-1 antibody staining in presence of free peptide [3]
CC1=C(/C=C/C(C)=C/C=C/C(C)=C/C(=O)O)C(C)(C)CCC1 [RA, All-trans-retinoic acid]	not reduced	does not decrease	did not alter; also recorded: unaltered	did not alter; also recorded: unaltered	–
SNNLKAHILTHANTNKNEQEGK (listed as Homo sapiens) [free human REX-1 peptide]	–	–	–	–	staining was eliminated
